Among the data in PubChem BioAssay (NCI) are GI50 and TGI values, retold here.

Some test systems named below: A549 NSCLC; HOP-62 NSCLC; OVCAR-3 ovarian; SK-MEL-28 melanoma; SNB-19 CNS; UO-31 renal; HL-60(TB) leukemia; KM12 colon; TK-10 renal; MALME-3M melanoma.
What all share (assay): growth of human tumour cells (NCI), 48 h

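Protocol summary: plate cells (96-well), add compound at 5 concentrations, incubate 48 h, interpolate endpoints linearly. GI50 marks 50% less growth. TGI is the concentration that stops growth completely.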

As to `Cc1cc(C2CC(O)C(CO)O2)cc2c(=O)[nH]c(N)nc12` (stereo unspecified), the GI50 with A549 NSCLC, in the test on HOP-62 NSCLC, in the test on OVCAR-3 ovarian, with SK-MEL-28 melanoma, in the test with SNB-19 CNS and with UO-31 renal was more than 100 µM in each case. Further, the TGI with A549 NSCLC, in the test with HOP-62 NSCLC, with OVCAR-3 ovarian, in the test with SK-MEL-28 melanoma, in the test with SNB-19 CNS and with UO-31 renal was more than 100 µM throughout.

Turning to `Cc1cc2c(cc1Cl)SC(=Nc1ccc(Cl)cc1)N(S(=O)(=O)c1ccccc1)S2(=O)=O`, the GI50 was 13.7 µM in the test on A549 NSCLC; 11.7 µM with HL-60(TB) leukemia; 13.5 µM in the test on HOP-62 NSCLC; 20 µM with KM12 colon; 1.55 µM in the test with OVCAR-3 ovarian; 12.2 µM in the test on SK-MEL-28 melanoma. The GI50 is 20.6 µM in the test with SNB-19 CNS, 11.9 µM with TK-10 renal and 13.5 µM in the test with UO-31 renal. Moreover, the TGI was determined as 32.2 µM in the test on A549 NSCLC; 32.7 µM with HL-60(TB) leukemia; 26.4 µM with HOP-62 NSCLC; 50.4 µM with KM12 colon; 7.11 µM in the test on OVCAR-3 ovarian; 63.5 µM in the test with SK-MEL-28 melanoma. In addition, the figures for the TGI with SNB-19 CNS, with TK-10 renal and with UO-31 renal were more than 100 µM, 24.6 µM and 32.7 µM, respectively.

As for `O=C(Nc1ccc(-n2cc(-c3ccncc3)c(-c3ccc(Cl)c(O)c3)n2)cc1)Nc1ccc(Cl)c(C(F)(F)F)c1`, the GI50 with A549 NSCLC was 2.21 µM; in the test with HL-60(TB) leukemia, 2.42 µM; with HOP-62 NSCLC, 1.68 µM; in the test with KM12 colon, 1.47 µM; with OVCAR-3 ovarian, 1.48 µM; in the test with SK-MEL-28 melanoma it was 1.63 µM. Further, the GI50 in the test with SNB-19 CNS was 1.72 µM; in the test on TK-10 renal it was 3.64 µM; in the test on UO-31 renal, 1.66 µM. In addition, the TGI in the test with A549 NSCLC amounted to 5.96 µM; with HL-60(TB) leukemia, 7.46 µM; in the test with HOP-62 NSCLC, 3.18 µM; in the test on KM12 colon, 3.01 µM; in the test with OVCAR-3 ovarian it was 3.11 µM; in the test with SK-MEL-28 melanoma it was 3.45 µM. The values for the TGI in the test on SNB-19 CNS, in the test with TK-10 renal and with UO-31 renal were 4.7 µM, 15.1 µM and 3.6 µM, respectively.

On to `COC(=O)/C(C=O)=C/Sc1ccccc1`, for which the TGI with A549 NSCLC was more than 100 µM; with HL-60(TB) leukemia it was more than 100 µM; in the test on HOP-62 NSCLC it was more than 100 µM; in the test on KM12 colon, more than 100 µM; with OVCAR-3 ovarian, 65.8 µM; in the test with SK-MEL-28 melanoma, 59.2 µM. Further, the figures for the TGI with SNB-19 CNS, with TK-10 renal and in the test with UO-31 renal were more than 100 µM, more than 100 µM and 30.7 µM, respectively.

On to `CN(CCCNC(=O)Cc1ccc2ccc3cccc4ccc1c2c34)CCCNc1cc(-c2ccc3ccccc3c2)nc2ccccc12`, for which the GI50 with A549 NSCLC was 1.83 µM; in the test with HL-60(TB) leukemia, 1.1 µM; in the test on HOP-62 NSCLC, 1.71 µM; in the test on KM12 colon, 1.36 µM; with OVCAR-3 ovarian, 1.76 µM; in the test on SK-MEL-28 melanoma it was 1.91 µM. Also, the figures for the GI50 with SNB-19 CNS, in the test with TK-10 renal and in the test on UO-31 renal were 1.74 µM, 1.47 µM and 1.4 µM, respectively. Also, the TGI in the test with A549 NSCLC came to 3.75 µM; in the test with HL-60(TB) leukemia, 2.43 µM; in the test with HOP-62 NSCLC it was 3.26 µM; in the test with KM12 colon it was 2.69 µM; in the test with OVCAR-3 ovarian it was 3.29 µM; in the test with SK-MEL-28 melanoma, 3.32 µM. Further, the values for the TGI in the test on SNB-19 CNS, in the test with TK-10 renal and in the test with UO-31 renal were 3.18 µM, 3.02 µM and 3.15 µM, respectively.

As for `COc1cc2c3c(n(CCCN(C)C)c(=O)c2cc1OC)-c1ccccc1C3=O`, the GI50 is 10.3 µM in the test on A549 NSCLC; 3.57 µM in the test on HOP-62 NSCLC; 5.61 µM in the test on KM12 colon; 7.38 µM with MALME-3M melanoma; 5.83 µM in the test with OVCAR-3 ovarian; 8.5 µM in the test with SK-MEL-28 melanoma. In addition, the GI50 with SNB-19 CNS is 8.28 µM; with TK-10 renal it was 38 µM; in the test with UO-31 renal, 16.7 µM. The TGI in the test with A549 NSCLC is more than 54.6 µM; in the test with HOP-62 NSCLC it was more than 89.8 µM; in the test with KM12 colon, 41.9 µM; with MALME-3M melanoma, more than 100 µM; in the test on OVCAR-3 ovarian, 54.8 µM; in the test on SK-MEL-28 melanoma, more than 65 µM. Also, the TGI is more than 71.3 µM in the test on SNB-19 CNS, more than 100 µM with TK-10 renal and 97.7 µM with UO-31 renal.

As to `COc1ccc(-c2c[nH]c(=S)n2-c2ccc(OC)cc2)cc1`, the GI50 in the test on A549 NSCLC, with HL-60(TB) leukemia, in the test on HOP-62 NSCLC, with KM12 colon, in the test on OVCAR-3 ovarian and with SK-MEL-28 melanoma was more than 50 µM in each case. The GI50 with SNB-19 CNS, with TK-10 renal and in the test on UO-31 renal was more than 50 µM each time. The TGI with A549 NSCLC, with HL-60(TB) leukemia, in the test with HOP-62 NSCLC, with KM12 colon, in the test on OVCAR-3 ovarian and with SK-MEL-28 melanoma was more than 50 µM each time. Besides, the TGI in the test on SNB-19 CNS, in the test with TK-10 renal and with UO-31 renal was more than 50 µM in each case.

With `COC(=O)OCC1OC(N2C(=O)NC(=O)C(Br)C2N=[N+]=[N-])CC1OC(=O)OC` (stereo unspecified), the TGI in the test with A549 NSCLC, in the test with HOP-62 NSCLC, in the test on KM12 colon, with MALME-3M melanoma, in the test on OVCAR-3 ovarian and in the test with SK-MEL-28 melanoma was more than 100 µM in each case. Besides, the TGI with SNB-19 CNS, in the test with TK-10 renal and in the test on UO-31 renal was more than 100 µM throughout.

`COc1ccc(-c2oc3cc(O)c(OC)c(O)c3c(=O)c2OC)cc1O`: the GI50 in the test on A549 NSCLC is 1.07 µM; with HL-60(TB) leukemia, 0.0275 µM; in the test on HOP-62 NSCLC, 0.271 µM; with KM12 colon, 0.437 µM; in the test with OVCAR-3 ovarian, 0.0432 µM; with SK-MEL-28 melanoma, 0.0775 µM. The GI50 is 0.189 µM in the test with SNB-19 CNS and 21.1 µM in the test on TK-10 renal. Also, the TGI in the test with A549 NSCLC is more than 100 µM; in the test on HL-60(TB) leukemia, 0.212 µM; with HOP-62 NSCLC, more than 100 µM; with KM12 colon it was 20.9 µM; with OVCAR-3 ovarian it was 0.194 µM; in the test on SK-MEL-28 melanoma, more than 100 µM. The TGI in the test on SNB-19 CNS and in the test with TK-10 renal was more than 100 µM each time.
